Tests used:
Test in all cases: relative viability (nuclei count vs DMSO), 5 days (fraction); higher = more cells survive
Quizartinib + Bortezomib = compound: CC(C)(C)c1cc(NC(=O)Nc2ccc(-c3cn4c(n3)sc3cc(OCCN5CCOCC5)ccc34)cc2)no1 [Quizartinib] + CC(C)C[C@H](NC(=O)[C@H](Cc1ccccc1)NC(=O)c1cnccn1)B(O)O [Bortezomib] (partner 0.002 µM)
In short: (§1)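 Relative viability equals treated-well nuclei counts divided by vehicle-well nuclei counts. Counts came from 4× images of lung cancer cell lines grown in 1536-well plates for 5 days after pin-tool dosing on the day after seeding. Dosing used one drug alone or a fixed anchor-drug dose plus five library-drug doses (not always all listed) in √10 steps, and values are medians of duplicate plates.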

YM155 + Foretinib = compound: COCC[n+]1c2c(n(Cc3cnccn3)c1C)C(=O)c1ccccc1C2=O [YM155] + COc1cc2c(Oc3ccc(NC(=O)C4(C(=O)Nc5ccc(F)cc5)CC4)cc3F)ccnc2cc1OCCCN1CCOCC1 [Foretinib] (partner 0.25 µM)
In short: as §1

Quizartinib + Dasatinib = compound: CC(C)(C)c1cc(NC(=O)Nc2ccc(-c3cn4c(n3)sc3cc(OCCN5CCOCC5)ccc34)cc2)no1 [Quizartinib] + Cc1nc(Nc2ncc(C(=O)Nc3c(C)cccc3Cl)s2)cc(N2CCN(CCO)CC2)n1 [Dasatinib] (partner 0.075 µM)
In short: as §1

YM155 + Trametinib = compound: COCC[n+]1c2c(n(Cc3cnccn3)c1C)C(=O)c1ccccc1C2=O [YM155] + CC(=O)Nc1cccc(-n2c(=O)n(C3CC3)c(=O)c3c(Nc4ccc(I)cc4F)n(C)c(=O)c(C)c32)c1 [Trametinib] (partner 0.02 µM)
In short: as §1

Cell Line	relative viability (Quizartinib + Bortezomib; first compound 0.003162 µM)	relative viability (Quizartinib + Bortezomib; first compound 0.01 µM)	relative viability (Quizartinib + Bortezomib; first compound 0.03162 µM)	relative viability (Quizartinib + Bortezomib; first compound 0.1 µM)	relative viability (YM155 + Foretinib; first compound 0.002 µM)	relative viability (YM155 + Foretinib; first compound 0.006325 µM)	relative viability (YM155 + Foretinib; first compound 0.02 µM)	relative viability (YM155 + Foretinib; first compound 0.06325 µM)	relative viability (Quizartinib + Dasatinib; first compound 0.001 µM)	relative viability (Quizartinib + Dasatinib; first compound 0.003162 µM)	relative viability (Quizartinib + Dasatinib; first compound 0.01 µM)	relative viability (Quizartinib + Dasatinib; first compound 0.03162 µM)	relative viability (Quizartinib + Dasatinib; first compound 0.1 µM)	relative viability (YM155 + Trametinib; first compound 0.002 µM)	relative viability (YM155 + Trametinib; first compound 0.006325 µM)	relative viability (YM155 + Trametinib; first compound 0.02 µM)	relative viability (YM155 + Trametinib; first compound 0.06325 µM)	relative viability (Quizartinib + Bortezomib; first compound 0.001 µM)
NCI-H1299	0.985	1.01	1.02	1.04	1.12	1.07	1.16	1.04										
NCI-H1395					0.943	0.91	0.984	1.01	0.384	0.418	0.388	0.421	0.413	1.04	1.02	1.08	1.2	
NCI-H1563	0.833	0.791		0.84	0.89	0.935	1.09	1.02	0.523	0.505	0.458	0.468	0.493					0.968
NCI-H1623					0.89	0.865	0.987	0.872	0.502	0.627	0.507	0.623	0.598					
NCI-H1703	0.269	0.16	0.18	0.256	0.309	0.355	0.381	0.276										0.418
NCI-H1792	0.947	1.01	0.793	0.952						0.742	0.84	0.658	0.836	0.498	0.366	0.468	0.599	0.783
NCI-H1793					0.626	0.875	0.675	0.79	0.357	0.381	0.356	0.392	0.327	0.4	0.452	0.432	0.407	
NCI-H1944					0.818	0.888	0.852	0.91	0.214	0.217	0.204	0.199	0.224	0.388	0.332	0.429	0.381	
NCI-H2170					1	0.983	1	1.09	0.721	0.422	0.591	0.625	0.497	0.878	0.936	0.903	0.966	
NCI-H2342					1	1.14	1.14	1.03	0.31	0.314	0.308	0.285	0.316	0.738	0.71	0.829	0.757	
SK-MES-1					0.9	0.889	0.921	0.921	0.337	0.354	0.404		0.273	0.588	0.701	0.459	0.218	
SW 900					0.874	0.622	1.15	0.905	0.557	0.294		0.563	0.616		0.922	0.843	0.809	

From the supplement of paper PMC10307832
